Laboratory results as given in publication PMC9967275, “Screening the Pathogen Box to Discover and Characterize New Cruzain and TbrCatL Inhibitors” (Pathogens, 2023).

Experiments:
cruzain = cruzain (Trypanosoma cruzi, UniProt P25779); test: biochemical; conditions: for Cruzain 0’ Inhibition / Cruzain 10’ Inhibition: sheet "Screening results"
Procedure, shortened: (§1)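 Recombinant enzymes assayed by Z-Phe-Arg-AMC cleavage at 25 °C, fluorescence 340/440 nm over 5–7 min, with 10 min or no enzyme–compound preincubation.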

TbrCatL = target: T1, TbrCatL (Trypanosoma brucei rhodesiense, UniProt Q95PM0); test: TbrCatL enzymatic inhibition assay (cleavage of fluorogenic substrate Z-FR-AMC); format: biochemical; conditions: for TbrCatL 0’ Inhibition / TbrCatL 10’ Inhibition: sheet "Screening results"
T1 construct: Conor Caffrey (University of California San Diego)
Procedure, shortened: as §1

[1] = 0’ (pre-incubation time), Pathogen Box screening results
[2] = 10’ (pre-incubation time), Pathogen Box screening results
[3] = 0’ (no pre-incubation), sheet Screening results
[4] = 10’ (pre-incubation), sheet Screening results
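Note: at 5 µM compound concentration.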

T1 sequence (Q95PM0 entry or part of it): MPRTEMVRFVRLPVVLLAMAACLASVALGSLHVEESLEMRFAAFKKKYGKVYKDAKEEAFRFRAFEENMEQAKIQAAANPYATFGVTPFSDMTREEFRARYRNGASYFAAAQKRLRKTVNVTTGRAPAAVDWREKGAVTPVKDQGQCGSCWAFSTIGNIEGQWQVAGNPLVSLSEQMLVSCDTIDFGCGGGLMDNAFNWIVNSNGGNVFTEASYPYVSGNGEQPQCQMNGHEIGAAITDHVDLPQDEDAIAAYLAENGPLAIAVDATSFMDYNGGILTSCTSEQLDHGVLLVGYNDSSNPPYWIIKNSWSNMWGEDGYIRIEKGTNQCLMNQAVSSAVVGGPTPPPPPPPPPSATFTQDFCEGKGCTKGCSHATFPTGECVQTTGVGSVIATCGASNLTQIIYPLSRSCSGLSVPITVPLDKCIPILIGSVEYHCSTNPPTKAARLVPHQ
Sequence of cruzain (P25779 123-337 limits assumed): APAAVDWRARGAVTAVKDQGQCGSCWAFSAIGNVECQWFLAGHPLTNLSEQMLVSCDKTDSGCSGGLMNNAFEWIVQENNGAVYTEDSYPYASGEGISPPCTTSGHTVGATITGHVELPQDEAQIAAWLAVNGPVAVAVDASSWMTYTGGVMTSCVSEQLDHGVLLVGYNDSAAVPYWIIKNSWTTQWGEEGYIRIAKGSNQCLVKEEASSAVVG

SMILES	Cruzain Inhibition 0’ (cruzain; [3])	Cruzain Inhibition 10’ (cruzain; [4])	TbrCatL Inhibition 0’ (TbrCatL; [3])	TbrCatL Inhibition 10’ (TbrCatL; [4])	also measured
CCc1ccccc1-n1c(C)cn2c3c(=O)n(C(C(=O)OC)C(C)C)c(=O)n(C)c3nc12 (stereo not shown) [MMV688550]	–	–	–	–	Cruzain Inhibition 0’ (cruzain; [1]): -4.3%; Cruzain Inhibition 10’ (cruzain; [2]): 3.2%; TbrCatL Inhibition 0’ (TbrCatL; [1]): -16%; TbrCatL Inhibition 10’ (TbrCatL; [2]): 0.4%
COc1ccc(-c2cc(NC(=O)c3ccc(F)cc3Cl)ccc2OC)cc1 [MMV676526]	-17%	-8%	-15%	-15%	–
Cc1c[nH]c(CCNC(=O)c2cc(-c3ccc(Cl)cc3)cs2)n1 [MMV676350]	17%	22%	28%	28%	–
CS(=O)(=O)c1ccccc1C(=O)N(Cc1ccccc1)c1ccccc1 [MMV688798]	13%	1.2%	1.5%	-1.9%	–
O=C(Cn1ccnc1[N+](=O)[O-])NCc1ccccc1 [MMV688773]	19%	4%	4.3%	3.7%	–
CC1(O)CC(c2nc(-c3ccc4ccc(-c5ccccc5)nc4c3)c3c(N)nccn23)C1 (stereo not shown) [MMV676605]	7.4%	-0.9%	7%	-13%	–
Clc1ccc(-n2cc(COc3ccnc4ccccc34)nn2)cc1 [MMV675994]	–	–	–	–	Cruzain 0’ Inhibition (cruzain; 0’ (pre-incubation time)): 5%; Cruzain 10’ Inhibition (cruzain; 10’ (pre-incubation time)): 14%; TbrCatL 0’ Inhibition (TbrCatL; 0’ (pre-incubation time)): -1.8%; TbrCatL 10’ Inhibition (TbrCatL; 10’ (pre-incubation time)): 11%
N#Cc1nc(-c2ccccc2)oc1S(=O)(=O)c1ccc(Cl)cc1 [MMV676412]	6%	-27%	5.5%	-69%	–
Cc1cc(=O)[nH]c(-n2nc(C)cc2C)n1 [MMV393995]	–	–	–	–	Cruzain Inhibition 0’ (cruzain; [1]): -12%; Cruzain Inhibition 10’ (cruzain; [2]): -0.3%; TbrCatL Inhibition 0’ (TbrCatL; [1]): -13%; TbrCatL Inhibition 10’ (TbrCatL; [2]): -7%
CC(C)NCC(=O)Nc1cccc(C(=O)Nc2cccc(C(F)(F)F)c2)c1 [MMV020165]	–	–	–	–	Cruzain 0’ Inhibition (cruzain; 0’ (pre-incubation time)): -1.7%; Cruzain 10’ Inhibition (cruzain; 10’ (pre-incubation time)): 12%; TbrCatL 0’ Inhibition (TbrCatL; 0’ (pre-incubation time)): 1.8%; TbrCatL 10’ Inhibition (TbrCatL; 10’ (pre-incubation time)): 5%
